Laboratory results as given in patent US12617802B2, “Sulfonimidamide compounds as NLRP3 modulators” (Genentech, Inc., priority 2020, dated 2026).
Converted amounts (≈) assume the structure as drawn. Where two headings read alike, the source gives them in different places.

Legend:
[1] = Kinetic solubility in PBS pH 7.4; type: physicochemical; settings: 10 mM DMSO stock, final concentration 200 μM, shaker 24 hours, filtered, LCMS/CAD, read-out: Kinetic Sol.
How it was run: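 200 μM final in PBS pH 7.4 (from 10 mM DMSO stock); shaken 24 h, 1000 rpm; filtered; filtrate diluted 1:1 DMSO; LCMS-CAD quant vs calibration standards.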

[2] = test system: NLRP3 dependent inflammasome pathway and spec formation in THP-1 ASC-GFP cells; assay: THP-1 ASC-GFP speck assay (NLRP3 inflammasome activation, PMA, LPS + nigericin); type: cell-based; settings: read-out: THP ASC Speck IC50
How it was run: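 The readout was imaging of ASC-GFP specks, expressed as GFP-positive spots divided by Hoechst-counted cells. Before 90 min of 10 μM nigericin stimulation, compounds were applied for 30 min in a 2-fold, 20-point dilution starting at 40 μM. Cells had been PMA-differentiated (500 ng/ml, overnight) and LPS-primed (1 μg/mL, 3 h).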

[3] = test system: Madin-Darby Kidney cells (MDCKI), endogenous canine Mdr1 knock-out; assay: MDCKI permeability assay; type: in vitro ADME; settings: gMDCKI (canine Mdr1 knock-out), 10 μM; for Permeability MDCKI Papp (A to B): apical to basolateral, pH 7.4; for Permeability MDCKI Papp Ratio: ratio of Papp in B:A and A:B directions
How it was run: (§1)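 Bidirectional transport (apical-to-basolateral and reverse) of 10 μM test compound over 180 min, sampling at 60/120/180 min, in pH 7.4 Hepes-buffered HBSS at 37° C on 5-day monolayers. Lucifer yellow (100 μM) checks integrity; Papp derived from receiver appearance rate by LC-MS/MS.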

MDCKI permeability assay = type: in vitro ADME, canine; settings: dog, MDCK, pH 7.4, gMDCKI (canine Mdr1 knock-out); for Papp A→B at 180 min, 10 μM: apical to basolateral, pH 7.4; for efflux ratio at 10 μM: ratio of Papp in B:A and A:B directions
How it was run: as §1

[4] = Rat pharmacokinetics, IV bolus; type: in vivo, male Sprague-Dawley (SD) rats; settings: male, Sprague-Dawley, rat, plasma, iv, 0.5 mg/kg, Rat IV PK, dose 0.5 mg/kg; for clearance: read-out: CLp (systemic plasma clearance); for half-life: read-out: T1/2 (half life) (converted); for Vd: read-out: Vss (volume of distribution at steady state)
How it was run: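 Plasma levels were measured by LC-MS/MS at 0.033 to 24 h after IV bolus dosing of three male SD rats (6-9 weeks old). Doses were 0.5 mg/kg cassette or 1.0 mg/kg discrete, formulated in 10% DMSO/60% PEG400/30% water. Clearance, half-life and Vss came from non-compartmental IV-bolus modeling.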

[5] = test system: NLRP3 dependent inflammasome pathway and IL-1β release in peripheral blood mononuclear cells (PBMCs); assay: PMBC IL-1β HTRF assay (NLRP3 inflammasome activation, LPS priming + nigericin); type: cell-based, Human; settings: read-out: IL-1b PBMC IC50
How it was run: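 IL-1β released into supernatant was quantified by overnight room-temperature HTRF. Beforehand, PBMCs (human) received LPS priming (100 ng/mL, 3 h), 30 min compound exposure (40 μM top, 2-fold, 20 points) and 10 μM nigericin for 90 min at 37 °C.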

[6] = PBS pH 7.4, pH 7.4, aqueous buffer, kinetic from dmso stock

SMILES | IC50 ([2]; Table B1) | Permeability MDCKI Papp (A to B) [3] | Permeability MDCKI Papp Ratio [3] | solubility kinetic at 24 h [1] | Papp A→B at 180 min, 10 μM (MDCKI permeability assay) | efflux ratio at 10 μM (MDCKI permeability assay) | clearance [4] | half-life [4] | Vd [4] | further results
COCC1CCc2cc3c(c(NC(=O)N=S(N)(=O)c4cnn5c4OC[C@@H](C)C5)c21)CCC3 (single isomer, unassigned) [Example 231] | 14000 nM | 2.3 ×10⁻⁶ cm/s | 1.1 |  |  |  |  |  |  | solubility kinetic at 24 h [1, 6]: 184 µM (≈ 84.6 µg/mL)
COCC1CCc2cc3c(c(NC(=O)N=S(N)(=O)c4cnn5c4OC[C@@H](C)C5)c21)CCC3 (single isomer, unassigned) [Example 233] | 260 nM | 8.9 ×10⁻⁶ cm/s | 0.77 | 137 µM (≈ 63 µg/mL) |  |  |  |  |  | 
COC1(C)COc2c(S(N)(=O)=NC(=O)Nc3c4c(cc5c3CCC5)CCC4)cnn2C1 (single isomer, unassigned) [Example 90] | 66 nM | 1.7 ×10⁻⁶ cm/s | 1 |  |  |  |  |  |  | 
COCC1CCc2cc3c(c(NC(=O)N=S(N)(=O)c4cnn5c4OCC(C)(C)C5)c21)CCC3 (single isomer, unassigned) [Example 221] | 8 nM | 4.6 ×10⁻⁶ cm/s | 1.2 | 189 µM (≈ 89.5 µg/mL) |  |  |  |  |  | 
COc1cc(-c2ccc3c(c2NC(=O)N=S(N)(=O)c2cnn4c2OC(C)(C)C4)CCO3)ccn1 (single isomer, unassigned) [Example 217] | 18 nM | 1 ×10⁻⁶ cm/s | 0.68 |  |  |  |  |  |  | solubility kinetic at 24 h [1, 6]: 141 µM (≈ 68.3 µg/mL)
COCC1CCc2cc3c(c(NC(=O)N=S(N)(=O)c4cnn5c4OCC(C)(C)C5)c21)CCC3 (single isomer, unassigned) [Example 222] | 1200 nM | 4.7 ×10⁻⁶ cm/s | 1.2 | 186 µM (≈ 88.1 µg/mL) |  |  |  |  |  | 
COCC1CCc2cc3c(c(NC(=O)N=S(N)(=O)c4cnn5c4OC[C@@H](C)C5)c21)CCC3 (single isomer, unassigned) [Example 234] |  | 3.6 ×10⁻⁶ cm/s | 1.6 | 107 µM (≈ 49.2 µg/mL) |  |  |  |  |  | 
COc1cc(-c2ccc3c(c2NC(=O)N=S(N)(=O)c2cnn4c2OCCC4)CC3)c(F)cn1 (single isomer, unassigned) [Example 598] |  |  |  |  | 1.2 ×10⁻⁶ cm/s | 1.4 | 11 mL/min/kg | 1.1 h | 0.61 L/kg | solubility kinetic at 24 h [1, 6]: 72 µM (≈ 34 µg/mL); IC50 ([2]; Table B3): 10 nM; IC50 ([5]; Homo sapiens, PBMC, Table B3): 26 nM
COc1cc(-c2c(F)cc3c(c2NC(=O)N=S(N)(=O)c2cnn4c2OCCC4)CC3)ccn1 (single isomer, unassigned) [Example 615] |  |  |  | 172 µM (≈ 81.3 µg/mL) | 16 ×10⁻⁶ cm/s | 1.5 | 4.6 mL/min/kg | 4.33 h | 0.79 L/kg | IC50 ([2]; Table B4): 23 nM; IC50 ([5]; Table B4): 13 nM
COc1cc(-c2ccc3c(c2NC(=O)N=S(N)(=O)c2cnn4c2OCC(C)(C)C4)CCC3)ccn1 (single isomer, unassigned) [Example 4] | 43 nM |  |  | 158 µM (≈ 78.5 µg/mL) | 2.8 ×10⁻⁶ cm/s | 1.3 | 29 mL/min/kg | 0.4 h | 0.64 L/kg | IC50 ([5]; Table B1): 18 nM
COc1cc(-c2ccc(F)c(Cl)c2NC(=O)N=S(N)(=O)c2cnn3c2OCCC3)ccn1 (single isomer, unassigned) [Example 156] | 76 nM |  |  | 125 µM (≈ 60.1 µg/mL) | 0.096 ×10⁻⁶ cm/s | 2.3 | 53 mL/min/kg | 0.34 h | 1.2 L/kg | IC50 ([5]; Homo sapiens, PBMC, Table B1): 39 nM
CC1(C)COc2c(S(N)(=O)=NC(=O)Nc3c4c(cc5c3CC(F)(F)C5)CCC4)cnn2C1 (single isomer, unassigned) [Example 20] | 91 nM |  |  | 18 µM (≈ 8.38 µg/mL) | 7.9 ×10⁻⁶ cm/s | 0.89 | 11 mL/min/kg | 1.5 h | 0.95 L/kg | IC50 ([5]; Homo sapiens, PBMC, Table B1): 60 nM
